Laboratory results taken from paper PMC9628810 (Science (New York, N.Y.), 2022).

Experiments:
[1] = target: T1, N-NLP7(1–581) (GST-N-NLP7-8xHIS) (Arabidopsis thaliana, UniProt Q84TH9); experiment: microscale thermophoresis; format: binding
T1 sequence (Q84TH9 1-581): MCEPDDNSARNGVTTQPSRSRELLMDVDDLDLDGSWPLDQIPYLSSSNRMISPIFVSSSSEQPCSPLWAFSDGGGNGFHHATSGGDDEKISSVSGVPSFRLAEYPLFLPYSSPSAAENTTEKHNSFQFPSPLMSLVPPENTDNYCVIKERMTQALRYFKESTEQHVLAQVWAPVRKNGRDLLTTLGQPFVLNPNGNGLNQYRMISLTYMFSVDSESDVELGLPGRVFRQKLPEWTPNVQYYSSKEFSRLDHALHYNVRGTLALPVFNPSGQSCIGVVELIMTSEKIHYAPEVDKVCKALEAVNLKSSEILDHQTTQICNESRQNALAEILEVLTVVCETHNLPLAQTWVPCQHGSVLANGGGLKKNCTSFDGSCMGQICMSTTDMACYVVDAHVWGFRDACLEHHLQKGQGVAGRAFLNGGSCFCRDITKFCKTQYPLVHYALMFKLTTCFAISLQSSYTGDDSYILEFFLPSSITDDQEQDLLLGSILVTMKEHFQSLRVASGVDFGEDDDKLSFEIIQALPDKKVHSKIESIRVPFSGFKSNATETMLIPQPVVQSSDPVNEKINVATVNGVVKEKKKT

NLP7 (GST-NLP7-8xHIS) = target: T2, NLP7 (GST-NLP7-8xHIS) (Arabidopsis thaliana, UniProt Q84TH9); experiment: microscale thermophoresis; format: binding
T2 sequence (Q84TH9 1-959): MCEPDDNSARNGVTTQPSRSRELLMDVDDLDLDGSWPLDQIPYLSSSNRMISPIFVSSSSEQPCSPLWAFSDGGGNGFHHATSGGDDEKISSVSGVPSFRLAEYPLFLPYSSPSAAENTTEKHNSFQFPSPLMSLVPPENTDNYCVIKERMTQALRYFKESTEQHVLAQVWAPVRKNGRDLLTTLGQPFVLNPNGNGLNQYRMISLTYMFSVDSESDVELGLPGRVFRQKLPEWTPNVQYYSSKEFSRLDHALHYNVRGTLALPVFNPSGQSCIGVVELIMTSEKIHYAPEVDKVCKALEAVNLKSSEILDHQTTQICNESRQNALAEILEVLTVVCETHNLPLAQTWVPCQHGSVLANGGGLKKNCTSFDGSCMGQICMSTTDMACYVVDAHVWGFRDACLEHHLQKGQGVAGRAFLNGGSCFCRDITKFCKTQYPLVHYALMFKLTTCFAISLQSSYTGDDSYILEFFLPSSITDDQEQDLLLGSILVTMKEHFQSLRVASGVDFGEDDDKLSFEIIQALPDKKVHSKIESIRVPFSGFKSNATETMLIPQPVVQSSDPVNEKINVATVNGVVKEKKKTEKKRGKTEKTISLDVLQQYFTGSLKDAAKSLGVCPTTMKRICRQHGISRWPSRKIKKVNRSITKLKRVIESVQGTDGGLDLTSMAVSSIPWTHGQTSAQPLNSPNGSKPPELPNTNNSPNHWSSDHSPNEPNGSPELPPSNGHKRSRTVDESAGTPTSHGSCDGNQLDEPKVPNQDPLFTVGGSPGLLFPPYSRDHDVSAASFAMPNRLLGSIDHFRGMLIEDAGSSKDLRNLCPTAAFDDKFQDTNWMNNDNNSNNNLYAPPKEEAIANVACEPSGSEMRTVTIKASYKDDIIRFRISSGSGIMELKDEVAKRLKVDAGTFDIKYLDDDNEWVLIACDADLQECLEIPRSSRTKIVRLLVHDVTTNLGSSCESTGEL

Q: `O=[N+]([O-])O` [nitrate] was tested. Which Kd [1] did it give?
A: 86 ± 38 µM

Q: What about the Kd (NLP7 (GST-NLP7-8xHIS)) of the same compound?
A: 52 ± 20 µM
